From patent US5371225A, “Tetracyclic compounds” (Kyowa Hakko Kogyo Co., Ltd., priority 1992, dated 1994) come the findings set out here.

Assay [1] relates to spleen cells (antibody production, direct PFC count). The assay is described as follows: Plaque Forming Cell Assay (inhibition of antibody production). The format is cell-based, Balb/c strain mice. The settings on record: Mus musculus, Erythrocyte, 120 h, spleen cells of mice sensitized with sheep erythrocytes, cultured 5 days, read-out: Inhibition rate; for inhibition at 10 µM: 10^-5 M; for inhibition at 0.1 µM: 10^-7 M.

For assay [2] the test system is unchanged. The assay is described as above. As to conditions: Mus musculus, Erythrocyte, 120 h; 10^-6 M; spleen cells of mice sensitized with sheep erythrocytes, cultured 5 days; read-out: Inhibition rate. The format is cell-based, Balb/c strain mice. As for the experimental part: The plaque forming cell assay was carried out by the following manner with reference to the method of Jerne et al. [Science, 140, 405 (1963) ]and the method of Yamamoto et al. [Drugs Experimental Clinical Research, III(1), 5 (1982)].
Male Balb/c strain mice (7-week-old) (Charles River Co.) were sensitized with 1×10^8 sheep erythrocytes (product of Biotest Research Institute) administered via the caudal vein, and the spleens were extirpated after 6 or 7 days after the sensitization. The extirpated spleens were immersed in Hanks' solution (Nissui Seiyaku) to make a cell suspension, which was then filtered, followed by centrifugal separation at 1200 rpm for 5 minutes. After centrifugal separation, the supernatant was discarded and the precipitate was treated with Tris·NH4 Cl solution to remove the erythrocytes, and then washed three times with Hanks' solution. After discarding the supernatant, the cells were suspended in an RPMI-1640 medium (Nissui Seiyaku) containing 10% bovine fetal serum (Gibco Co. ), 50 μg/ml of streptomycin (Meiji Seika), […] of penicillin (Meiji Seika) and 2mercaptoethanol (5×10^-5 M). In each well of a micro culture plate (NUNK Co., Ltd., 24 wells) were put 2 ml of the mixture of the cell suspension containing 1×10^7 of spleen cells, 5×10^6 sheep erythrocytes and a test compound solution (10^-6 M) obtained by diluting the test compound dissolved in dimethylsulfoxide (10^-2 M) with the above mentioned RPMI-1640, and the cells were cultured at 37° C. for 5 days.
After the completion of the culturing, the cells were subjected to centrifugal separation at 2000 rpm for 5 minutes, and the resulting supernatant was removed. The precipitate was suspended in 1 ml of Hanks' solution, again subjected to centrifugal separation, suspended in 1 ml of Hanks' solution, and then, 50 μl of the suspension and 50 μl of sheep erythrocytes were added to 400 μl of 0.25% agarose/Hanks' solution heated to 50° C. in advance, and the mixture was scattered on a glass slide, placed on a plaque assay plate, and together with guinea pig complement (Cedarlene Institute) diluted 40-fold with a phosphate buffer solution, incubated at 37° C. for 1 to 2 hours. The number of the appearing direct plaque cells (direct PFC count) in suspension was counted.
The inhibition rate of the antibody production of the test compound was determined by the following equation. [formula]
The compound used for comparison was 5,6-dihydro-9-fluoro-3-phenylbenz[c]acridine-7-carboxylic acid [Japanese Published Unexamined Patent Application No. 233661/90, hereinafter referred to as Compound (A)]represented by formula (A). [drawing 12]
PFC count in control means PFC count in the absence of the test compound (dimethylsulfoxide alone).

Structures are written as SMILES.

What is called inhibition is the percentage by which the read-out fell short of the control.

As for `O=C(O)c1c2c(nc3ccc(F)cc13)-c1ccc(-c3ccccc3F)cc1CC2` [Compound 2, 5,6-Dihydro-9-fluoro-3-(2-fluorophenyl) ben z [c]acridine-7carboxylicacid], in assay [1], the inhibition at 10 µM amounted to 99.4% and the inhibition at 0.1 µM worked out at 57.1%. For the same compound, in assay [2], the inhibition at 1 µM was 94.4%.
For `CC1Cc2cc(-c3ccccc3F)ccc2-c2nc3ccc(F)cc3c(C(=O)O)c21` (centres unmarked) [Compound 8], the inhibition at 10 µM in assay [1] came to 98.7%. Besides, in assay [2], the inhibition at 1 µM stood at 80.2%.
In the case of `CC1Cc2c(nc3ccc(F)cc3c2C(=O)O)-c2ccc(-c3ccccc3F)cc21` (centres unmarked) [Compound 5, 5,6-Dihydro-9-fluoro-3-(2-fluorophenyl)-5methylbenz[c]acridine-7-carboxylicacid], the inhibition at 10 µM in assay [1] was determined as 98.7%. For the same compound, the inhibition at 1 µM in assay [2] worked out at 64.6%.
On to `O=C(O)c1c2c(nc3ccc(F)cc13)-c1ccc(-c3ccccc3F)cc1CCC2` [Compound 3, 6,7-Dihydro-10-fluoro-3-(2-fluorophenyl) -5Hbenzo [6, 7]cyclohepta [1,2-b]quinoline-8-carboxylic acid], for which, in assay [1], the inhibition at 10 µM is 83.5% and the inhibition at 0.1 µM came out at 55.4%. Besides, the inhibition at 1 µM in assay [2] came out at 80.3%.
With `CC1(C)Cc2c(nc3ccc(F)cc3c2C(=O)O)-c2ccc(-c3ccccc3F)cc21` [Compound 7], the inhibition at 10 µM in assay [1] was 98.1%. Moreover, in assay [2], the inhibition at 1 µM is 75.3%.
As to `O=C(O)c1c2c(nc3ccc(F)cc13)-c1ccc(-c3ccccc3)cc1CC2` [A, 5,6-dihydro-9-fluoro-3-phenylbenz[c]acridine-7-carboxylic acid, reference compound], the inhibition at 10 µM in assay [1] was found to be 78.6%. Further, the inhibition at 1 µM in assay [2] was 45.9%.
